Results from patent publication US8785488B2 (Exelixis Patent Company LLC, priority 2009, dated 2014).

Columns and labels:
h-TGR5 = biological target: T1, h-TGR5 (Homo sapiens, UniProt Q8TDU6); assay: TGR5 cAMP Assay using Cisbio cAMP Dynamic2 htrf kit (hTGR5CRE-luc HEK 293 cells); format: cell-based; conditions: h-TGR5 cAMP EC50, Table 1; read-out: cAMP (EC50)
T1 construct: expressed in transfected cells
T1 sequence (Q8TDU6 1-330): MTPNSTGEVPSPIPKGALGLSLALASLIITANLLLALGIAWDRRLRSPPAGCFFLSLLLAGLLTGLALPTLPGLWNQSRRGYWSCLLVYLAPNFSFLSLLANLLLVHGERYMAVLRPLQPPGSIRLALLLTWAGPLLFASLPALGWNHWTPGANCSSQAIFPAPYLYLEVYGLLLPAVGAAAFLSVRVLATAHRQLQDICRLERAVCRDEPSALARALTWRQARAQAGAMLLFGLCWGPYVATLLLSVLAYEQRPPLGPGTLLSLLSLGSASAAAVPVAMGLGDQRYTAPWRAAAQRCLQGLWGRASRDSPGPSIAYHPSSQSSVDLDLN
In short: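 […], 4000 hTGR5CRE-luc HEK 293 cells per well, with 0.5 mM IBMX and d2-cAMP, were incubated 30 min at room temperature with compounds in 8-point half-log series, in quadruplicate.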

human TGR5 (h-TGR5) = biological target: T2, human TGR5 (h-TGR5) (Homo sapiens, UniProt Q8TDU6); assay: TGR5/CRE-Luciferiase Assay (HEK 293 hTGR5/CRE-Luc cells); format: cell-based; conditions: h-TGR5 CRE-Luc EC50, Table 1; read-out: CRE-Luc (EC50)
T2 construct: expressed in transfected cells
T2 sequence (Q8TDU6 1-330): T1 sequence (Q8TDU6 1-330)
In short: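 HEK293 cells stably carrying hTGR5 and a CRE-luciferase reporter were exposed to serially diluted compounds (diluted in DMEM with 5% DMSO) for 6 h. Cells were then lysed in luciferase buffer, luminescence was read, and EC50 values were derived from dose-response curves.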

## COc1cc(C(C)(C)c2cnc(SCc3c(F)cc(C(=O)NC4CCN(c5nnn[nH]5)CC4)cc3Cl)n2-c2ccc(F)cc2)ccc1Cl [3-chloro-4-({[5-{1-[4-chloro-3-(methyloxy)phenyl]-1-methylethyl}-1-(4-fluorophenyl)-1H-imidazol-2-yl]thio}methyl)-5-fluoro-N-[1-(1H-tetrazol-5-yl)piperidin-4-yl]benzamide]
h-TGR5
  EC50: < 100 nM
Human TGR5 (h-TGR5)
  EC50: < 100 nM

## CC(C)(O)CNC(=O)c1ccc(CSc2ncc(C(C)(C)c3ccc(Cl)c(Cl)c3)n2-c2ccc(F)cc2)c(F)c1 [4-[({5-[1-(3,4-dichlorophenyl)-1-methylethyl]-1-(4-fluorophenyl)-1H-imidazol-2-yl}thio)methyl]-3-fluoro-N-(2-hydroxy-2-methylpropyl)benzamide]
h-TGR5
  EC50: 100 to 1000 nM
Human TGR5 (h-TGR5)
  EC50: 100 to 1000 nM

## COc1cc(-n2c(C(C)(C)c3ccc(S(N)(=O)=O)c(Cl)c3)cnc2SCc2c(F)cc(C(=O)O)cc2F)ccc1F [4-{[(5-{1-[4-(aminosulfonyl)-3-chlorophenyl]-1-methylethyl}-1-[4-fluoro-3-(methyloxy)phenyl]-1H-imidazol-2-yl)thio]methyl}-3,5-difluorobenzoic acid]
h-TGR5
  EC50: < 100 nM
Human TGR5 (h-TGR5)
  EC50: < 100 nM

## COc1cc(C(C)(C)c2cnc(SCc3ccc(Cl)c(-c4nnn[nH]4)c3)n2-c2ccc(F)cc2)ccc1Cl [5-[2-chloro-5-({[5-{l-[4-chloro-3-(methyloxy)phenyl]-1-methylethyl}-1-(4-fluorophenyl)-1H-imidazol-2-yl]thio}methyl)phenyl]-1H-tetrazole]
h-TGR5
  EC50: 100 to 1000 nM
Human TGR5 (h-TGR5)
  EC50: < 100 nM

## COc1cc(C(C)(C)c2cnc(SCc3c(F)cc(OCCCNC(=N)N)cc3F)n2-c2ccc(F)cc2)ccc1Cl [1-(3-{[4-({[5-{1-[4-chloro-3-(methyloxy)phenyl]-1-methylethyl}-1-(4-fluorophenyl)-1H-imidazol-2-yl]thio}methyl)-3,5-difluorophenyl]oxy}propyl)guanidine]
h-TGR5
  EC50: < 100 nM
Human TGR5 (h-TGR5)
  EC50: < 100 nM

## COc1cc(-n2c(C(C)(C)c3ccc(S(N)(=O)=O)cc3)cnc2SCc2c(F)cc(C(=O)O)cc2F)ccc1F [4-{[(5-{1-[4-(aminosulfonyl)phenyl]-1-methylethyl}-1-[4-fluoro-3-(methyloxy)phenyl]-1H-imidazol-2-yl)thio]methyl}-3,5-difluorobenzoic acid]
h-TGR5
  EC50: 100 to 1000 nM
Human TGR5 (h-TGR5)
  EC50: 100 to 1000 nM

## COc1ccc(C(C)(C)c2cnc(CCc3c(F)cccc3Cl)n2-c2ccc(F)cc2)cc1OC [5-{1-[3,4-bis(methyloxy)phenyl]-1-methylethyl}-2-[2-(2-chloro-6-fluorophenyl)ethyl]-1-(4-fluorophenyl)-1H-imidazole]
h-TGR5
  EC50: < 100 nM
Human TGR5 (h-TGR5)
  EC50: < 100 nM
